Series [1] can be described thus: Distribution coefficient between 1-octanol and aqueous phosphate buffer, logD of the compound in pH 7.4 buffer. The format is physicochemical. The conditions noted are these: 1-octanol/aqueous phosphate buffer.
In series [2] the target is T1, Nuclear receptor ROR-gamma (Homo sapiens, UniProt P51449).
T1 sequence (P51449 whole entry): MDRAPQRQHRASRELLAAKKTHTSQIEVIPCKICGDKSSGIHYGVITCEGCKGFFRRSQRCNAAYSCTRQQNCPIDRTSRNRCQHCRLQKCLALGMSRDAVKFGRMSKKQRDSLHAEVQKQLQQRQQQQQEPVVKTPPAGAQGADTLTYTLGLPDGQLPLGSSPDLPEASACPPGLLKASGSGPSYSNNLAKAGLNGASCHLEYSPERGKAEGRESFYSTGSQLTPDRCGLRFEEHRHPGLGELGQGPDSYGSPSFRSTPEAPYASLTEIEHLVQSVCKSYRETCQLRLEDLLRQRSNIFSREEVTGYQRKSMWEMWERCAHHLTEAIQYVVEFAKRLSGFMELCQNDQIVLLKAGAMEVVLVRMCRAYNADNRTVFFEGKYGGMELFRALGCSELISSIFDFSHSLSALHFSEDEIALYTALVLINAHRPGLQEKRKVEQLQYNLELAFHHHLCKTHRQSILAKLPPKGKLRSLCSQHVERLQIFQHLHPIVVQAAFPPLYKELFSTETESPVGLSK
Description: Displacement of [3H]-2-(4-(ethylsulfonyl)phenyl)-N-(4-(2-(methoxymethyl)phenyl)thiophen-2-yl)acetamide from purified N-(HN)6-GST-TCS-human RORgammat (258 to 518 residues) incubated for 16 hrs by scintillation proximity assay

For series [3], the target named is T1, Nuclear receptor ROR-gamma. This is another data set of the same source.
Series [4] addresses T1, Nuclear receptor ROR-gamma. Put plainly: Inverse agonist activity at RORgammat in human TH17 cells assessed as inhibition of IL17 release incubated for 4 days by HTRF assay. The format is cell-based. A general note: TR-FRET usually uses a lanthanide donor and a delayed reading to cut background.
Series [5] in a line: Intrinsic clearance in rat hepatocytes assessed per million cells. The series is classed as ADME, cell-based, Hepatocyte. The conditions noted are these: read-out: CLH.

Each structure is given as a SMILES string.

With `CCS(=O)(=O)c1ccc(CC(=O)Nc2nc(-c3cccc(Cl)c3)c(C(=O)c3ccccc3Cl)s2)cc1`, the logD in series [1] was above 4.2. In addition, the IC50 is 9 nM in series [2], 22 nM in series [3] and 180 nM in series [4].

As for `CCS(=O)(=O)c1ccc(CC(=O)Nc2cc(-c3cccc(Cl)c3)cs2)cc1`, the logD in series [1] was above 4.1.

In series [1], `CCS(=O)(=O)c1ccc(CC(=O)Nc2cc(-c3cccnc3OC)cs2)cc1` showed a logD of 3.6. Also, the figures for the IC50 in series [2] and in series [3] were 410 nM and 110 nM, respectively. In addition, the hepatocyte CLint in series [5] is 13 µL/min/1e6 cells.

On to `CCS(=N)(=O)c1ccc(CC(=O)Nc2cc(-c3cc(C#N)ccc3OC)cs2)cc1` (stereo not given), for which, in series [1], the logD worked out at 2.8. Also, the IC50 was 340 nM in series [2] and 120 nM in series [3].

Take `CCS(=O)(=O)c1ccc(CC(=O)Nc2cc(-c3cc(Cl)cc(C#N)c3)cs2)cc1`: the logD in series [1] was above 4. The values for the IC50 in series [2] and in series [3] were 50 nM and 90 nM, respectively.

In the case of `CCS(=O)(=O)c1ccc(CC(=O)Nc2cc(-c3cncnc3OC)cs2)cc1`, the logD in series [1] is 2.8. Also, the IC50 in series [2] worked out at 1850 nM; in series [3] it was 700 nM.

As to `CCS(=O)(=O)c1ccc(CC(=O)Nc2cc(-c3cccnc3OCC(F)(F)F)cs2)cc1`, the results for the IC50 in series [2], in series [3] and in series [4] were 18 nM, 50 nM and 100 nM, respectively. In addition, in series [5], the hepatocyte CLint came out at 17 µL/min/1e6 cells.

`CCS(=O)(=O)c1ccc(C(NC(C)=O)C(=O)Nc2cc(-c3cccnc3Oc3ccc(C#N)cc3)cs2)cc1` (stereo not given) registered a logD in series [1] of 3.4. For the same molecule, the IC50 in series [2] was found to be 66 nM; in series [3], 55 nM; in series [4] it was 640 nM. In addition, the hepatocyte CLint in series [5] worked out at 10.4 µL/min/1e6 cells.

Molecule `CC[S+]([O-])c1ccc(CC(=O)Nc2cc(-c3cc(C#N)cnc3OC)cs2)cc1` (stereo not given) had a logD in series [1] of 3.4. Besides, the IC50 in series [2] was determined as 1290 nM; in series [3], 440 nM.

The molecule `CCS(=O)(=O)c1ccc(CC(=O)Nc2cc(-c3ccc(C#N)cc3Cl)cs2)cc1` showed a logD in series [1] of 3.7. The figures for the IC50 in series [2] and in series [3] were 1160 nM and 780 nM, respectively.

For the molecule `CCOc1ncccc1-c1csc(NC(=O)Cc2ccc(S(=O)(=O)CC)cc2)c1`, the logD in series [1] was at least 4. Further, the IC50 was 150 nM in series [2] and 80 nM in series [3]. Further, the hepatocyte CLint in series [5] stood at 28 µL/min/1e6 cells.

On to `CCS(=O)(=O)c1ccc(C(N)C(=O)Nc2cc(-c3cc(C#N)cc(F)c3OC)cs2)cc1` (stereo not given), for which the logD in series [1] stood at 3.2. Further, the IC50 came to 75 nM in series [2], 452 nM in series [3] and 1690 nM in series [4]. Moreover, the hepatocyte CLint in series [5] came out at 11 µL/min/1e6 cells.

In series [1], `CCS(=O)(=O)N1CCC(CC(=O)Nc2cc(-c3cc(C#N)cnc3OC)cs2)CC1` showed a logD of 3.2. Also, the IC50 in series [2] and in series [3] was 3250 nM throughout.

In series [1], `CCS(=O)(=O)c1ccc(C(NC(C)=O)C(=O)Nc2cc(-c3cccnc3OCc3ccccc3)cs2)cc1` (stereo not given) came in with a logD above 4. The molecule also came in with an IC50 in series [2] of 7 nM. The hepatocyte CLint in series [5] turned out to be 24 µL/min/1e6 cells.

The molecule `CCS(=O)(=O)c1ccc(CC(=O)Nc2cc(-c3cccnc3Oc3ccc(C#N)cc3)cs2)cc1` returned a logD in series [1] of 3.6. Further, the IC50 in series [2] stood at 88 nM; in series [4], 190 nM. In series [5], the hepatocyte CLint turned out to be 28 µL/min/1e6 cells.

`CCS(=O)(=O)c1ccc(C(NC(C)=O)C(=O)Nc2cc(-c3cc(C#N)cnc3OC)cs2)cc1` (stereo not given) had a logD in series [1] of 3.3. Also, the IC50 amounted to 14 nM in series [2], 67 nM in series [3] and 990 nM in series [4]. In series [5], the hepatocyte CLint worked out at 4 µL/min/1e6 cells.

Molecule `CCS(=O)(=O)c1ccc(CC(=O)Nc2cc(-c3cc(C#N)ccc3Cl)cs2)cc1` gave a logD in series [1] of 3.8. Moreover, the half-inhibitory concentration (IC50) in series [2] is 50 nM; in series [3] it was 60 nM.

The molecule `CCS(=O)(=O)c1ccc(C(NC(C)=O)C(=O)Nc2cc(-c3cccnc3OCc3ccc(OC(F)(F)F)cc3)cs2)cc1` (stereo not given) showed a logD in series [1] of 4.6. Further, the IC50 in series [2] stood at 6 nM; in series [3], 75 nM; in series [4], 32 nM. Besides, the hepatocyte CLint in series [5] was found to be 9.1 µL/min/1e6 cells.

Usually logD stands for lipophilicity at a set pH, counting ionised and neutral species. The low end stands for a more hydrophilic compound, the high end for a more lipophilic compound. The term IC50 denotes the midpoint of a concentration-inhibition curve.

The values above are taken from ChEMBL document CHEMBL4145688, “Potent and Orally Bioavailable Inverse Agonists of RORγt Resulting from Structure-Based Design” (J Med Chem, 2018).
